4 molecules from patent publication US6492536B2, “Steroids, their use as medicaments, their preparation process, the intermediates of this process and the compositions containing them” (Aventis Pharma S.A., priority 1996, dated 2002) can be followed below.

Molecules are shown by their SMILES. Bounds are passed on as bounds.

In test [1] the test system is Female Wistar rats. The experiment in a line: Thymolytic activity (thymus weight in granuloma test). Format: in vivo. The following applies: rat, oral route, once a day for four days. Here is the method: (§1) Granuloma Test—Thymolytic Activity
(§2) The anti-inflammatory activity was studied according to the standard granuloma test. The technique used is a modification of the method of Meier and Coll. (Experentia, 1950, 6, 469). Female Wistar rats, weighing 90 to 100 g, receive an implantation of two cotton pellets of 10 mg each under the skin of the thorax. The products are immediately administered by oral route, a the rate of once a day for four days. The animals are then sacrificed. The pellets surrounded by the granuloma tissue formed, are weighed in the fresh state, then after eighteen hours at 60° C. The weight of the granuloma is obtained by deduction of the initial weight of the cotton.
The thymuses are also removed and weighed in order to determine the thymolytic activity of the products.

In another test the test system is Male Wistar rats. The experiment in a line: Retarded hypersensitivity test (M. Tuberculosis), immunosuppressive activity. It counts as in vivo. The following applies: oral route from day 4 to 7, paw oedema 24 hours after antigen; for ED50: Mycobacterium tuberculosis, 4TO7, rat, read-out: Retarded hypersensitivity (M. Tuberculosis, rat) ED 50. The method, then:
3) Immunosuppressive Activity.
The immunosuppressive activity was studied according to the retarded hypersensitivity test described in the article by Hambleton et al. (Agents and Actions, […], 29, 328). Male Wistar rats weighing 150 to 160 g are sensitized on day 0 with a suspension of Mycobacterium Tuberculosis 4 mg/ml in parrafin oil by a sub-cutaneous injection at the base of the tail (0.1 ml/animal).
The products are administered by oral route from day 4 to 7.
On day 7, one hour after the last administration, the animals receive an injection of the soluble fraction of the antigen triggering the hypersensitivity reaction: 0.4 mg/rat in 0.2 ml by intraplantar route in a rear paw, the other receives the same quantity of solvent.
The oedema is measured 24 hours afterwards using an UGO BASIL plethysmometer from APELEX.
The activity of the products is evaluated by the percentage reduction in the increase of the injected paw relative to that of the control animals.

The next test relates to GRE-tk promoter. Kind of test: Regulation of transcription in transfected Hela cells: transactivation (GRE-tk-CAT plasmid). Format: cell-based. The following applies: 24 hours, CAT ELISA. The method, then: (§3) The molecules according to the invention have been tested in models of HELA cells transfected with the GRE-tk-CAT plasmid (transactivation), or with the pColl-CAT plasmid (transrepression). (Cf. TEST 1)
(§4) I) Study of the regulation of transcription in transfected Hela cells.
(§5) Hela cells (ATCC ref: CCL-2) are distributed in a 6-well plate, in a nutritive medium with a density of 4×10^5 cells/ml, 24 hours before the transfection, and are incubated at 37° C. The transitory transfections are produced according to the precipitate method with calcium phosphate. In the case of the study of transactivation, the cells are transfected with 1 μg of GRE-tk-CAT plasmid, 1 μg of polyII β-GAL plasmid and KS plasmid (Stratagene), s.q.f. 5 μg. In the case of the study of transrepression, the cells are transfected with 3 μg of Coll (−517/+63) CAT plasmid, 250 ng of pSV-cjun plasmid, 1 μg of polyII β-GAL plasmid and KS plasmid (Stratagene), s.q.f. 5 μg. The precipitate is left in contact with the cells for 16 hours. These are then rinsed and covered with the nutritive medium containing different concentrations of Dexamethasone or the products to be studied (10^−9M, 10^−8M, 10^−7M, 10^−6M). 24 hours after the addition of the products, the cells are lysed in 250 μl of MOPS-NaCl-Triton X-100 buffer. The CAT is dosed in the cellular extracts using the ELISA Kit (Boehringer Mannheim).

A further test has as its system male mice. Kind of test: Ear oedema test induced by croton oil. To be noted: applied to the ear, 6 hours. It counts as in vivo. Here is the method:
Ear Oedema Test Induced by Croton Oil
The products have also been tested in the model of the ear oedema of mice using croton oil according to the method described in Tonelli et al. (Endocrinology, 1965, 77, 625-634). An ear oedema is induced in male mice weighing 18 to 22 g, by using croton oil (2% v/v) in a pyridine-water-ether solution 4:1:14.6 (by volume). The animals are sacrificed 6 hours later, the ears are removed and weighed. The difference in weight between the ear treated with croton oil and the contralateral ear (non-treated) allows 100% of the oedema to be determined. The products to be tested are dissolved in the solution of croton oil and applied to the ear.

A further test deals with collagenase promoter. Kind of test: Regulation of transcription in transfected Hela cells: transrepression (Coll (-517/+63) CAT plasmid). It counts as cell-based. The following applies: 24 hours, CAT ELISA; for inhibition at 1 µM / inhibition at 0.1 µM / inhibition at 0.01 µM / inhibition at 0.001 µM: Homo sapiens. Here is the method: as §3, §4, §5
Background: In an ELISA, binding on a coated surface is turned into a signal by an enzyme label.

The test system of test [2] is Female Wistar rats. The experiment in a line: Granuloma test (cotton pellets), anti-inflammatory activity. Format: in vivo. The following applies: rat, oral route, once a day for four days. The method, then:
as §1, §2

In the case of `C[C@@H]1C[C@H]2[C@@H]3CCC4=CC(=O)C=C[C@]4(C)[C@@]3(F)[C@@H](O)C[C@]2(C)[C@H]1C(=O)CC#N` [Example 2, 9α-fluoro-11β-hydroxy-16α-methyl-pregna-1,4-diene-3,20-dione-21-carbonitrile], the “Thymolysis ED 50” value in the test with Female Wistar rats [1] amounted to 2.5 mg/kg/po. In addition, the ED50 in the test with Male Wistar rats is 1.5 mg/kg. The “Activation of GRE-tk (%)” value in the test on GRE-tk promoter (10^-6 M) is on record as 16.92 +/− 3.55%; with GRE-tk promoter (10^-7 M) it was 10.45 +/− 4.33%; in the test on GRE-tk promoter (10^-8 M) it was 1.34 +/− 1.33%; in the test on GRE-tk promoter (10^-9 M), 0%. In addition, the “Oedema using croton oil (mouse) ED 50” value in the test on male mice came to 2 μg/ear. Further, in the test on collagenase promoter (10^-6 M), the inhibition (as a rule, the percentage by which the read-out fell short of the control) at 1 µM came to 75.6%. Also, at 0.1 µM the inhibition in the test with collagenase promoter (10^-7 M) was 81.3%. The inhibition at 0.01 µM with collagenase promoter (10^-8 M) was 36.2%. In the test with collagenase promoter (10^-9 M), this molecule came in with an inhibition at 0.001 µM of 20.6%. Moreover, the “Granuloma ED 50” value in the test with Female Wistar rats [2] was >7 mg/kg/po.

`CSCC(=O)[C@H]1[C@H](C)C[C@H]2[C@@H]3CCC4=CC(=O)C=C[C@]4(C)[C@@]3(F)[C@@H](O)C[C@@]21C` [Example 1, 9α-fluoro-11β-hydroxy-16α-methyl-21-thiomethyl-pregna-1,4-diene-3,20-dione]: in the test with Female Wistar rats [1], the “Thymolysis ED 50” value turned out to be 2.5 mg/kg/po. In the test with Male Wistar rats, the “Retarded hypersensitivity (M. Tuberculosis, rat) ED 50” value is reported as 2.3 mg/kg. The “Activation of GRE-tk (%)” value was 37.56 +/− 1.9% with GRE-tk promoter (10^-6 M), 35.21 +/− 2.24% with GRE-tk promoter (10^-7 M), 27.74 +/− 1.05% in the test with GRE-tk promoter (10^-8 M) and 3.78 +/− 0.87% with GRE-tk promoter (10^-9 M). Moreover, in the test on male mice, the “Oedema using croton oil (mouse) ED 50” value is 10 μg/ear. The “Inhibition of the Coll promoter (%)” value in the test with collagenase promoter (10^-6 M) is 81.79 +/− 2.98%; in the test with collagenase promoter (10^-7 M), 57.61 +/− 2.46%; in the test on collagenase promoter (10^-8 M) it was 37.12 +/− 6.7%; in the test with collagenase promoter (10^-9 M) it was 3.57 +/− 3.09%. Moreover, in the test on Female Wistar rats [2], the “Granuloma ED 50” value came to 5 mg/kg/po.

For `C[C@@H]1C[C@H]2[C@@H]3CCC4=CC(=O)C=C[C@]4(C)[C@@]3(F)[C@@H](O)C[C@]2(C)[C@@]1(O)C(=O)CO` [Dexamethasone, reference compound], the “Thymolysis ED 50” value in the test with Female Wistar rats [1] was <0.05 mg/kg/po. Moreover, the ED50 with Male Wistar rats was 0.05 mg/kg. Moreover, the “Activation of GRE-tk (%)” value is reported as 98.82 +/− 1.18% in the test on GRE-tk promoter (10^-6 M), 89.48 +/− 2.26% with GRE-tk promoter (10^-7 M), 53.38 +/− 2.65% with GRE-tk promoter (10^-8 M) and 7.34 +/− 2.57% with GRE-tk promoter (10^-9 M). In the test on male mice, the “Oedema using croton oil (mouse) ED 50” value worked out at 1 μg/ear. This molecule returned an inhibition at 1 µM in the test on collagenase promoter (10^-6 M) of 93.1%. This molecule had an inhibition at 0.1 µM with collagenase promoter (10^-7 M) of 96.6%. This molecule also yielded an inhibition at 0.01 µM in the test with collagenase promoter (10^-8 M) of 87.6%. Also, the inhibition at 0.001 µM in the test on collagenase promoter (10^-9 M) worked out at 42.2%. Also, the “Granuloma ED 50” value in the test on Female Wistar rats [2] turned out to be 0.1 mg/kg/po.

As for `C[C@]12C=CC(=O)C=C1CC[C@@H]1[C@@H]2[C@@H](O)C[C@@]2(C)[C@H]1CC[C@]2(O)C(=O)CO` [Prednisolone, reference compound], the “Thymolysis ED 50” value in the test with Female Wistar rats [1] is on record as 1.6 mg/kg/po. Further, the ED50 with Male Wistar rats fell in the range of 5 to 20 mg/kg. Moreover, in the test with male mice, the “Oedema using croton oil (mouse) ED 50” value was found to be 4 μg/ear. Further, in the test on Female Wistar rats [2], the “Granuloma ED 50” value is 2.5 mg/kg/po.
